#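 In this assay, cells in 96-well plates receive the compound at five concentrations for 48 hours. Endpoints are linearly interpolated between the surrounding concentrations. GI50 = concentration required for 50% inhibition of growth. TGI marks complete inhibition of growth.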
# What was measured:
# Test in all cases: DTP human tumour cell line panel, 48 h
# OVCAR-3 ovarian = test system: OVCAR-3 ovarian
# HOP-92 NSCLC = test system: HOP-92 NSCLC
# 786-0 renal = test system: 786-0 renal
# A498 renal = test system: A498 renal
# RPMI-8226 leukemia = test system: RPMI-8226 leukemia
# K-562 leukemia = test system: K-562 leukemia
# BT-549 breast = test system: BT-549 breast
# SK-OV-3 ovarian = test system: SK-OV-3 ovarian
# ACHN renal = test system: ACHN renal
# SF-268 CNS = test system: SF-268 CNS
SMILES,GI50 (OVCAR-3 ovarian) [µM],TGI (OVCAR-3 ovarian) [µM],GI50 (HOP-92 NSCLC) [µM],TGI (HOP-92 NSCLC) [µM],GI50 (786-0 renal) [µM],TGI (786-0 renal) [µM],GI50 (A498 renal) [µM],TGI (A498 renal) [µM],GI50 (RPMI-8226 leukemia) [µM],TGI (RPMI-8226 leukemia) [µM],GI50 (K-562 leukemia) [µM],TGI (K-562 leukemia) [µM],GI50 (BT-549 breast) [µM],TGI (BT-549 breast) [µM],GI50 (SK-OV-3 ovarian) [µM],TGI (SK-OV-3 ovarian) [µM],GI50 (ACHN renal) [µM],TGI (ACHN renal) [µM],GI50 (SF-268 CNS) [µM],TGI (SF-268 CNS) [µM]
CCNC(=O)c1noc(-c2cc(C(C)C)c(O)cc2O)c1-c1ccc(CN2CCOCC2)cc1,0.0529,19.1,0.0252,0.0738,1.98,31.5,0.0418,17.5,0.0428,23.1,< 0.0172,> 46.3,8.36,30.4,< 0.01,22.3,0.0373,> 100,2.44,34.9
CCOC(=O)/C(C#N)=C\C=C(/Cl)c1ccc(Cl)cc1,7.76,28.4,17.5,47.2,19.4,37.4,32.3,> 79.3,3.71,29.8,12.9,> 64.3,25.8,68,> 46.8,> 85.4,18.3,32.6,27.9,> 77
Cc1ccc(NC(=O)c2cc(S(=O)(=O)N3C(=O)NC(=O)NS3(=O)=O)c(S)cc2Cl)cc1,16.5,36.4,15.6,54.7,40.4,> 100,26.2,68.5,22,73.6,22.2,68.7,24.2,63.9,67.8,> 100,26.3,83.8,38.1,> 100
COc1cc(NCCCCCCCNC(C)C)c2nccc(C)c2c1,2.96,8.89,10.7,23.8,14.8,28.6,15.3,29.6,4.79,20.4,3.46,14.6,17.7,33.5,13.7,27.1,14.2,27.8,16.3,31.9

# From PubChem BioAssay (NCI)
